Assay results published in patent publication US9676749B2, “Compositions and methods for cancer detection and treatment” (Ohio State Innovation Foundation, priority 2009, dated 2017).
“Also recorded” adds a separate entry of the source. Read-outs that look alike come from different tables or passages of the source.

What was measured:
[1] = system: symmetrical dimethylation (S2Me) of histone H4R3 in glioma cell line U1242; test: Symmetric dimethyl H4R3 (S2Me-H4R3) content in glioma/astrocytoma cell lines by confocal microscopy and flow cytometry; type: cell-based, human; conditions: for S2Me-H4R3 in astrocytoma cell lines, single agent or combined: CMP5 at 25 uM, HDAC inhibitor TSA; for H4R3 symmetric 2Me arginine methylation (S2Me): U1242, 8 hour incubation, confocal microscopy; for S2Me-H4R3 content, flow cytometric assay (FIG. 18): U1242 and U251, TSA (25 nM) and/or CMP5 (25 uM)
Description: (§1) Confocal microscopy was used with mAbs specific for symmetrical dimethylation (S2Me) of histone H4R3. Positive control for loss of PRMT5 activity was provided by treatment of U1242 cells with a PRMT5-specific siRNA used in above experiments. (B) Cell proliferation was assessed in replicate cultures incubated in DMSO and compounds 1-8.
Initial Screening experiments were performed utilizing monoclonal antibodies specific for H4R3 symmetric dimethyl arginine and confocal microscopy generated images evaluating H4R3 methylation. Controls included scrambled and SiRNA specific for PRMT5 to verify knockdown and loss of H4R3 methylation. […] Findings similar to PRMT5-specific SiRNA treatment.
Recent work reported by Pal et al has shown that PRMT5 associates with SWI/SNF chromatin remodeling complexes along with other co-repressor molecules like HDAC2. […] We utilized a flow cytometric assay to evaluate symmetric dimethyl H4R3 (S2Me-H4R3) content and confocal microscopy to verify loss of methylation status.
(§2) The biochemical association of PRMT5 and HDAC2 with repressive chromatin remodeling complexes and cooperative enzyme kinetics has been previously described. […] As a control, we utilized a flow cytometric assay to evaluate symmetric dimethyl H4R3 (S2Me-H4R3, FIG. 18) content and confocal microscopy (not shown) to verify decrease of methylation status. We used Aimexin V/PI staining and flow cytometry to examine apoptosis (below). […] We are presently performing dose response experiments to examine whether this activity can be improved. In data not shown, we can achieve similar results with lower doses of CMP5 (10 uM). […] Inhibition PRMT5 with CMP5 and HDAC enzymes (at 10 fold lower concentrations) leads to synergistic induction of apoptosis of astrocytoma cell lines.

U1242 cell line = test: Cell proliferation of GBM cells; type: cell-based, human; conditions: for cell proliferation / anti proliferative activity: GBM cells (U1242), vs DMSO control
Description: as §1
Preliminary enzymatic activity assays are currently underway and will be provided as an update during submission of supplementary materials.

[2] = system: astrocytoma cell lines (U1242 and U251); test: Apoptosis of GBM/astrocytoma cell lines (Annexin V/PI, flow cytometry); type: cell-based, human; conditions: single agents, not shown
Excerpt: (B) inhibition of migration at 12 hrs after addition of siRNA to knock down PRMT5 vs. Scramble siRNA control.
as §2

purified PRMT5 [3] = biological target: T1, purified PRMT5 (Homo sapiens, UniProt O14744); conditions: 100-500 uM CMP5, H4 substrate, 3H-SAM, 3 h at 37 C; ±7.8%, p<0.001, data not shown
Description: The next step required studies to explore whether CMP5 was capable of selectively inhibiting a type II PRMT enzyme. Type I PRMT enzymes are involved in transcriptional activation (asymmetric dimethylation at H4R3) and type II PRMT enzymes regulates transcriptional repression (symmetric dimethylation or S2Mc at H4R3). To achieve this goal, we performed enzyme inhibition assays using purified PRMT1 (type I PRMT enz) and purified PRMT5 (type II PRMT enz). Assays were performed utilizing 2 methods. The first utilized methods described previously by Zhao et at (Nat Struct Mol Biol. 2009), where 1 ug of H4 (Roche) was used as substrate and 2 uCi of S-adenosyl-L-methyl-^3H-methionine (^3H-SAM; Amersham) as the methyl donor in the presence or absence of 100-500 uM of CMP5 was incubated in HMTase buffer for 3 h at 37° C. Reaction mixtures were spotted on Whatman P-81 filter paper and washed to remove unincorporated [^3H]SAM. Methylated peptides were detected by scintillation counting. […] The second method utilized a methyltransferase activity assay to distinguish if differential inhibitory activity of CMP5 existed against the type I PRMT1 vs. the type II enzyme PRMT. […] Fluorescently labeled SAM tracer was added followed by anti-SAM antibody that produces a change in fluorescent polarization that can be measured using a fluorescence reader.

purified PRMT1 = purified PRMT1 (Homo sapiens, UniProt Q99873); conditions: 100-500 uM, one hour at 37 C, 3 replicate experiments, p<0.0001
Excerpt: (§3) Do achieve this, we performed enzyme inhibition assays using purified PRMT1 (a type I PRMT enzyme) and purified PRMT5 (a type II PRMT enzyme).
(§4) The next step required studies to explore whether CMP5 was capable of selectively inhibiting a type II PRMT enzyme. Type I PRMT enzymes are involved in transcriptional activation (asymmetric dimethylation at H4R3) and type II PRMT enzymes regulates transcriptional repression (symmetric dimethylation or S2Mc at H4R3). To achieve this goal, we performed enzyme inhibition assays using purified PRMT1 (type I PRMT enz) and purified PRMT5 (type II PRMT enz). Assays were performed utilizing 2 methods. The first utilized methods described previously by Zhao et at (Nat Struct Mol Biol. 2009), where 1 ug of H4 (Roche) was used as substrate and 2 uCi of S-adenosyl-L-methyl-^3H-methionine (^3H-SAM; Amersham) as the methyl donor in the presence or absence of 100-500 uM of CMP5 was incubated in HMTase buffer for 3 h at 37° C. Reaction mixtures were spotted on Whatman P-81 filter paper and washed to remove unincorporated [^3H]SAM. Methylated peptides were detected by scintillation counting. […] The second method utilized a methyltransferase activity assay to distinguish if differential inhibitory activity of CMP5 existed against the type I PRMT1 vs. the type II enzyme PRMT. The methyltransferase assay we used (Amsbio inc) utilized purified PRMT5 and PRMT1 enzyme preparations and tested for methylation of Histone H4 at arginine 3 (H4R3). SAM was incubated with a sample containing substrate H4 peptide, different concentrations of methyltransferase enzymes (PRMT5 or PRMT1), in presence or absence of CMP5 (100-500 uM) for one hour at 37° C. Fluorescently labeled SAM tracer was added followed by anti-SAM antibody that produces a change in fluorescent polarization that can be measured using a fluorescence reader.

purified PRMT5 [4] = biological target: T1, purified PRMT5
Excerpt: as §3, §4

human pure PRMT5 enzyme = human pure PRMT5 enzyme (Homo sapiens, UniProt O14744); test: In vitro methylation assay; type: biochemical; conditions: FIG. 21 left
Description: SAM was omitted for the substrate control, and human pure PRMT5 enzyme was omitted for blank control. (right) Jeko and Mino cells were treated by 10 uM of BLL36 for 24 hr, viability was evaluated by flow cytometry.

[5] = compound 5 at 20, 30, 40, 50 and 100 uM, 48 hours

T1 sequence (O14744 whole entry): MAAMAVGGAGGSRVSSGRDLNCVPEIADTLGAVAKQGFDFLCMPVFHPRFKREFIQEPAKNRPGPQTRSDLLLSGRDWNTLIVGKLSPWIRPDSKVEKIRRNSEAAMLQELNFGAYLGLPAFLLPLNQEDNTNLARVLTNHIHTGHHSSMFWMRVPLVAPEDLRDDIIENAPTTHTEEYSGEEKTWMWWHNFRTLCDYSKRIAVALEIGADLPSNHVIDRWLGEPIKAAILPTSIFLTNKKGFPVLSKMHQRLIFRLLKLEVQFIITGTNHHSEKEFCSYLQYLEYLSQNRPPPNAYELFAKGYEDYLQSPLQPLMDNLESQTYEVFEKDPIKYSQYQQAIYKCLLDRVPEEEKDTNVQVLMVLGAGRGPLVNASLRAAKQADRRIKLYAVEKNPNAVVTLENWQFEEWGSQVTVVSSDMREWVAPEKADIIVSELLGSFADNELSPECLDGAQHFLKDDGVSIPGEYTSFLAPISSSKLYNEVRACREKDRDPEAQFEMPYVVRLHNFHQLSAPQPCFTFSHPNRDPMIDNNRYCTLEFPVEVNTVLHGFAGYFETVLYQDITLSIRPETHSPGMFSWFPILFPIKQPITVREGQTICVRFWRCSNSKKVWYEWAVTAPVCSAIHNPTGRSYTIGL
T1 sequence (Q9BQA1 whole entry partner): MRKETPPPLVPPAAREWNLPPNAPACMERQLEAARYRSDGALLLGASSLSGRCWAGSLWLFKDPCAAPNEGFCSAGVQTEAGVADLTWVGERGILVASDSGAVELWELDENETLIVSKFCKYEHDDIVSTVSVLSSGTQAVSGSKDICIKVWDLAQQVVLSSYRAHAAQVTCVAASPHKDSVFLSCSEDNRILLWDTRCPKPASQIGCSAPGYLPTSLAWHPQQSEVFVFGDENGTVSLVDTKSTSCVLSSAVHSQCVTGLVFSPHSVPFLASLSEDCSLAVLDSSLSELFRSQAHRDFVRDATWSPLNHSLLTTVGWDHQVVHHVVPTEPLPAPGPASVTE
Sequence of purified PRMT1 (Q99873 whole entry, species assumed): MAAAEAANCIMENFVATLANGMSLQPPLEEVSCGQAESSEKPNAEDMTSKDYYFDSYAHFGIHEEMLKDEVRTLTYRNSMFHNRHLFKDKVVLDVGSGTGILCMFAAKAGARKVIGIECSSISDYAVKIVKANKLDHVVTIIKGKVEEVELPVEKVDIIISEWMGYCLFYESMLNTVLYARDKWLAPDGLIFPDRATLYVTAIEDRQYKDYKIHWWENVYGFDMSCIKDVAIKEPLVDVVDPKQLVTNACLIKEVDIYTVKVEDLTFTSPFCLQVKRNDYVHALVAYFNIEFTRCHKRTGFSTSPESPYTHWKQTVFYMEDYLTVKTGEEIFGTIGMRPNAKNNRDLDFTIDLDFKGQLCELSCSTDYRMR
Sequence of human pure PRMT5 enzyme (O14744 whole entry): as the sequence (O14744 whole entry) above
Sequence of human pure PRMT5 enzyme (Q9BQA1 whole entry partner): as the sequence (Q9BQA1 whole entry partner) above

Structure (SMILES)	S2Me-H4R3 in astrocytoma cell lines, single agent or combined [1]	concentration of compound 5 giving loss of S2Me status of H4R3 on co-treatment with HDACi TSA ([1]; GBM cell lines, co-treated with TSA)	fold lower concentration of compound 5 for loss of S2Me H4R3 on co-treatment with TSA ([1]; GBM cell lines, co-treated with TSA (75, 100 nM))	H4R3 symmetric 2Me arginine methylation (S2Me) [1]	H4R3 symmetric 2Me arginine methylation (S2Me) ([1]; listed as CMP5)	S2Me-H4R3 content, flow cytometric assay (FIG. 18) [1]	degree of H4R3 methylation, titration [1, 5]	concentration of CMP5 required for reduced methylation, single agent ([1]; original dose response experiments)	cell proliferation / anti proliferative activity (U1242 cell line)	cell proliferation / anti proliferative activity (U1242 cell line; listed as CMP5)	cellular proliferation (absolute cell numbers), titration (U1242 cell line; [5])	apoptosis of GBM cell lines [2]	reduction of methyltransferase activity (purified PRMT5 [3])	inhibition of PRMT1 activity (purified PRMT1)	inhibition of PRMT1 activity (purified PRMT1; listed as CMP5)	inhibition of PRMT5 activity (purified PRMT5 [4]; 100-500 uM, one hour at 37 C, 3 replicate experiments, p<0.0001)	IC50 (purified PRMT5 [4]; lead compound of the initial screen)	concentration that decreased methyltransferase activity of PRMT5 (human pure PRMT5 enzyme)
CCn1c2ccccc2c2cc(CNCc3ccccn3)ccc21 [Compound 5]	unchanged	10 µM	> 10 fold	most efficacy; also recorded: best activity; also recorded: reduced; also recorded: capable of inhibiting H4R3 symmetric 2Me arginine methylation	loss of symmetric dimethyl-H4R3	no change in S2Me-H4R3	a dose response was seen	100 µM	most efficacy; also recorded: reduced cell proliferation	antiproliferative effect	a dose response was seen	promote apoptosis of GBM cell lines	55%	not PRMT1 activity	not PRMT1 enzymatic activity	selectively inhibiting PRMT5 activity	micromolar (uM) ranges	100 µM
CC(/C=C/C(=O)NO)=C\[C@@H](C)C(=O)c1ccc(N(C)C)cc1 [TSA, Trichostatin A, reference compound]	unchanged	–	–	–	–	no change in S2Me-H4R3	–	–	–	–	–	–	–	–	–	–	–	–
